# Test results: PubChem BioAssay (NCI)
#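 Compound exposure: 48 hours, 5 concentrations, 96-well plates. GI50 = concentration required for 50% inhibition of growth. The concentration for full growth arrest is given as TGI.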
# How the values were obtained:
# Assay in all cases: NCI tumour cell line growth inhibition, 48 h
# UACC-257 melanoma = system: UACC-257 melanoma
# NCI-H522 lung = system: NCI-H522 lung
# MOLT-4 leukemia = system: MOLT-4 leukemia
# T-47D breast = system: T-47D breast
# HOP-62 NSCLC = system: HOP-62 NSCLC
# SN12C renal = system: SN12C renal
# UO-31 renal = system: UO-31 renal
# U251 CNS = system: U251 CNS
Compound,GI50 (UACC-257 melanoma) [µM],TGI (UACC-257 melanoma) [µM],GI50 (NCI-H522 lung) [µM],TGI (NCI-H522 lung) [µM],GI50 (MOLT-4 leukemia) [µM],TGI (MOLT-4 leukemia) [µM],GI50 (T-47D breast) [µM],TGI (T-47D breast) [µM],GI50 (HOP-62 NSCLC) [µM],TGI (HOP-62 NSCLC) [µM],GI50 (SN12C renal) [µM],TGI (SN12C renal) [µM],GI50 (UO-31 renal) [µM],TGI (UO-31 renal) [µM],GI50 (U251 CNS) [µM],TGI (U251 CNS) [µM]
CSc1ccc(C(=O)/C=C/c2ccccc2Cl)cc1,15.2,29.3,10.9,33.1,24,> 100,23.5,> 100,17.4,35.4,17.3,32.7,2.31,5.05,4.75,17.2
Nc1ncnc2c1ccn2[C@@H]1O[C@H]([C@H](O)c2ccc(Cl)c(F)c2)[C@@H](O)[C@H]1O,> 100,> 100,> 100,> 100,> 100,> 100,23.5,> 100,> 100,> 100,> 100,> 100,45.3,> 100,> 100,> 100
COc1ccc(/C=C2\c3cc(OC)c(OC)c(OC)c3CC[C@@H]2O)cc1F,> 100,> 100,0.156,0.639,0.956,> 100,0.36,> 100,0.245,> 100,0.949,> 100,0.534,89.9,0.469,33.2
CCn1ccc(NS(=O)(=O)c2ccc(N)cc2)nc1=O,> 100,> 100,> 100,> 100,> 100,> 100,> 100,> 100,> 100,> 100,> 100,> 100,> 100,> 100,> 100,> 100
COc1cc(/C=C/C(=O)c2c(C)nc3ccccc3c2C)ccc1OCCCN1CCN(C(=O)c2ccco2)CC1,3.28,16.1,5.06,23.9,0.528,8,2.5,15,14.7,30,11,28.7,4,19.6,7.95,20.6
Cc1cc(=O)oc2cc(OC/C=C3\CCC(=O)O3)ccc12,21.5,> 62.1,7.82,23,–,0.011,14.3,35.3,21.6,58,15.2,34.9,12.8,26.3,14.5,30.9
COCCn1cc(-c2csc(-c3c[nH]c4ccc(Br)cc34)n2)c2cccnc21,8.69,64.2,2.17,6.93,3.87,> 100,1.97,21,7.98,47.7,7.72,> 100,3.1,> 100,6.18,73.2
Nc1c(F)cc(-c2nc3cc(F)ccc3[se]2)cc1Br,> 100,> 100,10.6,> 100,> 46.5,> 100,0.0578,0.631,1.83,> 100,17.7,> 100,1.43,> 79,12,70.5
CCCCCC[C@H](C)NC(=O)c1ccc(Nc2nc3ccccc3c3occc23)cc1,2.64,6.17,2.5,5.74,3.4,> 100,1.2,6.31,3.39,12.9,24.5,97.3,0.596,3.53,19,> 100
Cc1cc(Cl)cc(Cc2cc(Cl)cc(C)c2O)c1O,3.02,12.3,1.76,6.65,3.45,49.8,3.64,> 100,3.66,11.5,2.27,9.7,2.06,10.6,2.93,11.3
COc1ccc(N(C)c2nc(Cl)nc3cnn(C)c23)cc1,29.8,> 100,< 0.01,–,0.0193,> 100,< 0.01,> 100,< 0.0118,> 100,< 0.0203,> 100,< 0.0383,> 95.5,< 0.01,> 100
COc1ccc2c(c1)C(=O)c1c-2c(Nc2cccc(C(C)=O)c2)nc2ccccc12,23.9,61.7,8.53,35.1,64.6,> 100,13.6,55.2,0.727,2.49,10.3,40.1,15.4,45.2,3.09,12.3
CCN(Cc1ccc(F)cc1)c1ccc(CO)c(OC)c1,8.85,42.7,6.61,20,20.1,72.4,6.32,33.4,40.8,> 100,21.9,> 100,13.7,35.6,22.1,99.3
N#CC1C(=O)NC(c2ccccc2[N+](=O)[O-])c2sc3c(F)cccc3c21 (configuration not stated),0.961,4.72,14.1,48,15.4,> 73,0.241,20.7,2.12,28.9,16.4,> 96.3,5.44,36.1,1.16,62.6
